Among the test systems are SNB-75 CNS; ACHN renal; EKVX NSCLC; NCI-H23 lung; HT29 colon; SN12C renal; RXF 393 renal; SK-OV-3 ovarian; MDA-MB-231 breast; COLO 205 colon.
What all share (assay): DTP human tumour cell line panel, 48 h

The values below come from PubChem BioAssay (NCI).

Several values for one entry are separate records, joined by “and”; a condition that tells them apart may be missing. Equal entries are not always repeated.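 Results reflect a 48-hour exposure of cells in 96-well plates to compound at five concentrations. Here, GI50 denotes the concentration required for 50% inhibition of growth. Definition used: TGI = concentration required for complete inhibition of growth.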 *1 amine or outer side, *2 acyl side, *3 side chain or, on linkers, in order; H or OH if unused. Where a SMILES comes first, the peptide text is derived from it. Bridges are numbered along the chain shown (N, C = ends). Roman numbers before positions name the chains, in order. [ ]: non-standard residue; d: D form. Actinocin(9to1) = Cc1c2oc3c(C)ccc(C(=O)[*:1])c3nc-2c(C(=O)[*:2])c(N)c1=O; NMeV = CN[CH](C(=O)O)C(C)C; Sar = CNCC(=O)O

The term GI50 denotes the concentration giving 50% growth inhibition. A word on the TGI: it is the concentration at which net growth stops. The low end stands for greater sensitivity of the cells, the high end for lower sensitivity of the cells. As to `COC1CC(C)C(OC)c2cc(O)cc(c2O)NC(=O)/C(C)=C/C=C\C(C)C(OC(N)=O)/C(C)=C\C(C)C1OC` (stereo unspecified), the GI50 in the experiment with SNB-75 CNS was 245 nM; in the experiment on ACHN renal, 6710 nM; in the experiment with EKVX NSCLC it was 7950 nM; in the experiment on NCI-H23 lung, 169 nM and 179 nM; in the experiment with HT29 colon, 52.6 nM and 116 nM; with RXF 393 renal, 1330 nM. Besides, the concentration for 50% growth inhibition (GI50) in the experiment on SK-OV-3 ovarian is 171 nM; in the experiment on MDA-MB-231 breast, 291 nM and 243 nM and 1160 nM; in the experiment on COLO 205 colon, 41.4 nM and 78.5 nM. The total growth inhibition concentration (TGI) is 18.2 µM and 3.42 µM in the experiment with SNB-75 CNS; 12.6 µM and 13.2 µM in the experiment on ACHN renal; 25 µM and 22.9 µM in the experiment on EKVX NSCLC; 5.59 µM and 4.37 µM in the experiment on NCI-H23 lung; 12.2 µM and 10.3 µM in the experiment with HT29 colon; 15.1 µM and 8.7 µM with SN12C renal. In addition, the TGI in the experiment on RXF 393 renal is 9.01 µM and 8.63 µM; in the experiment with SK-OV-3 ovarian, 8.02 µM and 14.7 µM; in the experiment with MDA-MB-231 breast it was 10.3 µM and 8.54 µM; in the experiment on COLO 205 colon, 7120 nM and 2800 nM.
For `C=C1C(=O)O[C@H]2[C@H]1CC/C(Cn1cc(Cc3c[nH]c4ccccc34)nn1)=C\CC[C@@]1(C)O[C@@H]21`, the GI50 is 3080 nM with SNB-75 CNS; 1470 nM with ACHN renal; 1840 nM in the experiment with EKVX NSCLC; 2020 nM in the experiment on NCI-H23 lung; 1950 nM in the experiment with HT29 colon; 1980 nM in the experiment on SN12C renal. Also, the GI50 in the experiment with RXF 393 renal was 1630 nM; in the experiment on SK-OV-3 ovarian it was 14200 nM; in the experiment with MDA-MB-231 breast it was 1720 nM; with COLO 205 colon, 1830 nM. For the same compound, the total growth inhibition concentration (TGI) in the experiment on SNB-75 CNS came to 12.5 µM; in the experiment with ACHN renal, 2.8 µM; in the experiment with EKVX NSCLC, 3.98 µM; in the experiment with NCI-H23 lung, 4.56 µM; in the experiment with HT29 colon it was 3.72 µM; in the experiment on SN12C renal, 4.42 µM. Also, the total growth inhibition concentration (TGI) in the experiment on RXF 393 renal turned out to be 3.63 µM; in the experiment on SK-OV-3 ovarian it was 27.4 µM; with MDA-MB-231 breast, 3.48 µM; with COLO 205 colon, 3750 nM.
For `CCC#CC[C@H](O)C/C=C1/C(=O)C=C[C@@H]1C/C=C\CCCC(=O)OC`, the GI50 with SNB-75 CNS is 5070 nM; in the experiment on ACHN renal, 947 nM; with EKVX NSCLC, 1760 nM; in the experiment with NCI-H23 lung, 1020 nM; in the experiment on HT29 colon it was 991 nM; in the experiment with SN12C renal, 1770 nM. In addition, the GI50 with RXF 393 renal is 865 nM; with SK-OV-3 ovarian, 3210 nM; in the experiment on MDA-MB-231 breast, 1950 nM; in the experiment on COLO 205 colon it was 1140 nM. Besides, the concentration for total growth inhibition (TGI) in the experiment on SNB-75 CNS was 13.4 µM; in the experiment on ACHN renal it was 2.07 µM; in the experiment with EKVX NSCLC it was 7.73 µM; in the experiment with NCI-H23 lung, 2.78 µM; with HT29 colon, 2.46 µM; in the experiment with SN12C renal, 8.12 µM. Moreover, the total growth inhibition concentration (TGI) is 1.64 µM in the experiment on RXF 393 renal, 10.2 µM in the experiment with SK-OV-3 ovarian, 7.78 µM in the experiment on MDA-MB-231 breast and 2860 nM with COLO 205 colon.
Consider `Cc1cc(C(=O)Nc2cc(Oc3ccc4nc(NC(=O)C5CC5)cn4n3)ccc2C)n(C)n1`, for which the GI50 in the experiment with SNB-75 CNS, in the experiment with ACHN renal, in the experiment on EKVX NSCLC, in the experiment with NCI-H23 lung, in the experiment with HT29 colon and with SN12C renal was above 10000 nM in each case. Further, the GI50 in the experiment with RXF 393 renal was 7460 nM; in the experiment on SK-OV-3 ovarian, above 10000 nM; with MDA-MB-231 breast, above 10000 nM; in the experiment with COLO 205 colon, above 10000 nM. Further, the total growth inhibition concentration (TGI) with SNB-75 CNS, in the experiment with ACHN renal, in the experiment with EKVX NSCLC, in the experiment with NCI-H23 lung, in the experiment with HT29 colon and in the experiment with SN12C renal was above 10 µM in each case. In addition, the TGI was above 10 µM in the experiment on RXF 393 renal, above 10 µM with SK-OV-3 ovarian, above 10 µM in the experiment with MDA-MB-231 breast and above 10000 nM in the experiment with COLO 205 colon.
For the compound `O=C1Nc2ccccc2/C1=C\c1cccc(/C=C2/C(=O)Nc3ccccc32)n1`, the GI50 in the experiment with SNB-75 CNS was 1320 nM; in the experiment with ACHN renal it was 308 nM; with EKVX NSCLC, 692 nM; in the experiment with NCI-H23 lung, 855 nM; with HT29 colon, 226 nM; in the experiment with SN12C renal it was 357 nM. The concentration for 50% growth inhibition (GI50) in the experiment with RXF 393 renal is 248 nM; in the experiment with SK-OV-3 ovarian, 1210 nM; in the experiment with MDA-MB-231 breast, 1250 nM; in the experiment on COLO 205 colon, 356 nM. Besides, the concentration for total growth inhibition (TGI) stood at 3.46 µM in the experiment on SNB-75 CNS; 1.12 µM in the experiment on ACHN renal; 8.74 µM in the experiment on EKVX NSCLC; 2.43 µM with NCI-H23 lung; 0.529 µM in the experiment on HT29 colon; 1.36 µM in the experiment with SN12C renal. The TGI with RXF 393 renal was 0.61 µM; with SK-OV-3 ovarian, 2.76 µM; in the experiment on MDA-MB-231 breast, 2.77 µM; in the experiment on COLO 205 colon, 1570 nM.
Regarding `CCOc1cc(C(=O)O)c2c(ccc3ccc(OC)c(OC)c32)c1OC`, the TGI in the experiment on SNB-75 CNS, with ACHN renal, with EKVX NSCLC, in the experiment on NCI-H23 lung, in the experiment with HT29 colon and with SN12C renal was above 100 µM in each case. Moreover, the total growth inhibition concentration (TGI) is above 100 µM with RXF 393 renal, above 100 µM in the experiment with SK-OV-3 ovarian, above 100 µM with MDA-MB-231 breast and above 100000 nM in the experiment on COLO 205 colon.
On to `Cc1c(N)nc([C@H](CC(N)=O)NC[C@H](N)C(N)=O)nc1C(=O)N[C@H](C(=O)N[C@H](C)[C@@H](O)CC(=O)N[C@H](C(=O)NC(O[C@@H]1O[C@@H](C)[C@@H](N)[C@@H](O)[C@H]1O)C(O)c1nc(-c2nc(C(=O)NCCCCN)cs2)cs1)[C@@H](C)O)[C@@H](O[C@@H]1O[C@@H](CO)[C@@H](O)[C@H](O)[C@@H]1O[C@H]1O[C@H](CO)[C@@H](O)[C@H](OC(N)=O)[C@@H]1O)c1c[nH]cn1` (stereo partly specified), for which the TGI in the experiment on SNB-75 CNS, in the experiment on ACHN renal, in the experiment on EKVX NSCLC, in the experiment on NCI-H23 lung, in the experiment with HT29 colon and in the experiment on SN12C renal was above 50 µM each time. For the same compound, the TGI with RXF 393 renal was above 50 µM; in the experiment on SK-OV-3 ovarian, above 50 µM; with MDA-MB-231 breast, above 50 µM; with COLO 205 colon, above 50000 nM.
With `Cc1c2oc3c(C)ccc(C(=O)OC(C)C4NC(=O)C(C(C)C)N(C)C(=O)CN(C)C(=O)C5CCCN5C(=O)C(C(C)C)NC4=O)c3nc-2c(C(=O)OC(C)C2NC(=O)C(C(C)C)N(C)C(=O)CN(C)C(=O)C3CCCN3C(=O)C(C(C)C)NC2=O)c(N)c1=O` (stereo unspecified) (I: cyclo([Sar][NMeV]TVP) / II: cyclo([Sar][NMeV]TVP); linker I:3-II:3 via Actinocin(9to1); configuration not given here), the GI50 was below 10.9 nM in the experiment with SNB-75 CNS; below 10 nM in the experiment on ACHN renal; 22 nM in the experiment with EKVX NSCLC; below 10 nM with NCI-H23 lung; below 10 nM in the experiment on HT29 colon; below 10 nM in the experiment on SN12C renal. The GI50 in the experiment with RXF 393 renal was below 10 nM; with SK-OV-3 ovarian, 19.2 nM; in the experiment with MDA-MB-231 breast, 15.2 nM; in the experiment on COLO 205 colon it was below 10 nM. In addition, the concentration for total growth inhibition (TGI) was 0.039 µM with SNB-75 CNS; 4.39 µM in the experiment with ACHN renal; 0.0802 µM in the experiment on NCI-H23 lung; above 100 µM in the experiment on SN12C renal; 0.0185 µM in the experiment on RXF 393 renal; above 100 µM with SK-OV-3 ovarian. For the same compound, the TGI in the experiment with COLO 205 colon stood at 16.3 nM.
